Measurements reported in US8298782B2, “Reversible MHC multimer staining for functional purification of antigen-specific T cells” (priority 2000, dated 2012).

Tests used:
[1] = tested on: LLO91-99-specific T cells; assay: 3H-thymidine incorporation proliferation assay of multimer-treated T cells; type: cell-based; conditions: reagent remains on the cell surface
Protocol: FIG. 3: Interference of MHC multimer staining with T cell function in vitro. (a) LLO91-99-specific T cells were stained for 2 hours with binding (LLO91-99/H2-K^d) or non-binding (p60217-225/H2-K^d) streptavidin-PE tetramer (“tet”) reagents at 4° C. or 37° C. MHC tetramer staining (upper), TCR expression (middle, filled black graph hidden behind TCR^high populations), and annexin V binding (lower) are shown in histogram format. (b) Immunofluorescence staining of LLO91-99-specific T cells one hour after incubation with LLO91-99/H2-K^d streptavidin-Alexa546 tetramers (red) at 4° C. or 37° C. (c) LLO91-99-specific T cells stained for 30 min with binding or non-binding tetramer reagents at 4° C., were then washed to remove unbound reagent and transferred to a chromium release assay (effector to target ratio approx. 5:1). LLO91-99 peptide concentration and percent specific lysis are shown on the x- and y-axes, respectively. […]
FIG. 7: Reversible MHC multimer staining and T cell function. […] (a) Staining for recombinant MHC-molecules (detected by epitope-tag staining, x-axis) on differently treated T cells. […] Numbers of viable bacteria (y-axis) were determined 48 h following Lysteria infection. […]

[2] = tested on: LLO91-99-specific T cells; assay: MHC tetramer staining, TCR expression, annexin V binding and immunofluorescence of T cells; type: cell-based
Protocol: (§1) FIG. 3: Interference of MHC multimer staining with T cell function in vitro. (a) LLO91-99-specific T cells were stained for 2 hours with binding (LLO91-99/H2-K^d) or non-binding (p60217-225/H2-K^d) streptavidin-PE tetramer (“tet”) reagents at 4° C. or 37° C. MHC tetramer staining (upper), TCR expression (middle, filled black graph hidden behind TCR^high populations), and annexin V binding (lower) are shown in histogram format. (b) Immunofluorescence staining of LLO91-99-specific T cells one hour after incubation with LLO91-99/H2-K^d streptavidin-Alexa546 tetramers (red) at 4° C. or 37° C. (c) LLO91-99-specific T cells stained for 30 min with binding or non-binding tetramer reagents at 4° C., were then washed to remove unbound reagent and transferred to a chromium release assay (effector to target ratio approx. 5:1). LLO91-99 peptide concentration and percent specific lysis are shown on the x- and y-axes, respectively. The bars indicate lysis of MHC mismatched target cells (10^−8 M LLO91-99 peptide and no peptide conditions only) by effector cells treated with non-binding MHC tetramer reagents (filled bars) or binding reagents (open bars). (d) LLO91-99-specific T cells were treated as in (c), transferred into a proliferation assay in the presence of syngeneic irradiated splenocytes, and stimulated in the presence of peptide or various mitogens (x-axis).
LLO91-99 specific T cell lines were expanded in vitro as described before (18). MHC-multimer staining was performed by incubation of approximately 2 μg H2-K^d Strep-tag® II peptide multimer reagent (IBA GmbH) per 1×10^6 cells at 4° C. for 30 min. For epitope-tag staining cells were washed, fixed briefly in 1% paraformaldehyde, and subsequently stained for anti-HSV tag using an unconjugated primary mouse or rat mAb (e.g. TB067, Novagen) and a secondary anti-mouse or anti-rat-PE antibody (e.g. A85-1, PharMingen). Flow cytometry was performed using a FACSCalibur (Becton Dickinson) and FlowJo software. […] Conventional ^51Cr-release and ^3H-thymidine incorporation assays were performed as described before (18).
Phenotypic changes of cell populations have not been reported so far following epitope-specific T cell staining at low temperatures (4° C.). Under these conditions, TCR-MHC mediated signalling events become not activated. MHC multimer staining at higher temperatures (e.g. at room temperature (RT), or at 37° C.) has been performed to improve the intensity and/or stabilty of the fluorescent signal through epitope-specific internalization of the multimer. In order to analyze the impact of differential treatment of T cells on their phenotype, we compared LLO91-99-specific T cell lines following staining with LLO91-99/H2-K^d tetramers at 4° C. or 37° C. As a negative control, MHC tetramers containing different Listeria epitope ([…]) were used; these reagents cannot bind to TCRs of LLO91-99-specific T cells, thus controlling for potential peptide-independent effects.

Listeria monocytogenes = assay: adoptive transfer of multimer-treated T cells, protection against Listeria infection; type: in vivo, BALB/c mice
Source text: Six hours later, mice were infected with 2×10^4 Listeria monocytogenes. […] Control mice received NaCl only.
(a) Staining for recombinant MHC-molecules (detected by epitope-tag staining, x-axis) on differently treated T cells. (b) Cytotoxicity (% specific lysis, y-axis) of differently treated T cells in response to LLO91-99 peptide-coated target cells (peptide titration, x-axis) with an effector to target cell ratio of approx. 5:1, compare with FIG. 1c. (c) Proliferation (y-axis) of differently treated T cells stimulated with epitope or various mitogens (indicated on the x-axis) in the presence of syngeneic irradiated splenocytes. Compare with FIG. 1d. (d) Protection against Lysteria monocytogenes infection following adoptive transfer of 4.1×10^6 LLO91-99-specific T cells treated with binding (LLO91-99) or non-binding (p60217-225) MHC multimer reagents (indicated to the left). […] Numbers of viable bacteria (y-axis) were determined 48 h following Lysteria infection. Data are representative of three independent experiments, each with 2 mice per group.
LLO91-99 specific T cells were stained with H2-K^d Strep-tag® II peptide multimer reagents (IBA GmbH) at 4° C. […] Adoptive cell transfer was performed by injection of 1×10^7 cells—per mouse per group—into the tail vein of naive BALB/c mice.

[3] = tested on: LLO91-99-specific T cells; assay: 51Cr-release cytotoxicity assay of multimer-treated CTLs; type: cell-based
Protocol: as §1
FIG. 7: Reversible MHC multimer staining and T cell function. LLO91-99-specific T cells were stained for 30 min with binding LLO91-99/H2-K^d Strep-tag® II peptide/β2m-Strep-tag® II peptide-HSV-tag:Strep-Tactin® polypeptide (IBA GmbH) or non-binding (p60217-225/H2-K^d) multimer reagents and then extensively washed over 4 h in the presence or absence or d-biotin (1 mM, all done at 4° C.) prior to assays or adoptive transfer. (a) Staining for recombinant MHC-molecules (detected by epitope-tag staining, x-axis) on differently treated T cells. […] Numbers of viable bacteria (y-axis) were determined 48 h following Lysteria infection. […]

[4] = biological target: T1, Strep-Tactin® polypeptide (mutated streptavidin) (Streptomyces avidinii, UniProt P22629, E68V/S69T/V71R); conditions: read-out: Kd of Strep-tag II peptide with Strep-Tactin; cited from earlier work
T1 construct: literature IBA GmbH
T1 sequence (P22629 38-163 E68V/S69T/V71R): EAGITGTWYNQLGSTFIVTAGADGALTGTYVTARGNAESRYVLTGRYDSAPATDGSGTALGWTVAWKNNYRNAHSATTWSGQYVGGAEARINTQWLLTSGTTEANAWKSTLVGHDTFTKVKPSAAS

Row | Substance | proliferation in response to antigen or mitogenic stimulation [1] | MHC tetramer staining ([2]; 2 h incubation at 4° C.) | MHC tetramer staining ([2]; 2 h incubation at 37° C.) | annexin V binding (early marker of apoptosis) ([2]; after staining at 37° C.) | surface TCR expression ([2]; after staining at 37° C.) | immunofluorescence microscopy staining pattern ([2]; incubation at 4° C.) | immunofluorescence microscopy staining pattern ([2]; incubation at 37° C.) | protection against Listeria infection following adoptive transfer (Listeria monocytogenes; 4.1×10^6 cells, reagent not dissociated) | LLO91-99-specific T cells recovered from recipient mice after transfer (Listeria monocytogenes; compared to control cells) | protection against Listeria infection (viable bacteria in spleen 48 h) (Listeria monocytogenes; transfer of 1×10^6 treated CTLs) | protection against Listeria infection (viable bacteria in spleen 48 h) (Listeria monocytogenes; transfer of 1×10^7 treated CTLs, listed as LLO91-99/H2-K^d tetramer reagents) | protection against Listeria infection (viable bacteria in spleen 48 h) (Listeria monocytogenes; transfer of 1×10^7 treated CTLs, listed as binding MHC tetramers) | lysis in the absence of peptide (spontaneous/bystander lysis) ([3]; reagent not dissociated) | maximum % specific lysis ([3]; stained CTLs washed, then 37° C., constant effector to target ratio) | peptide sensitivity of cytotoxicity ([3]; various concentrations of LLO91-99 peptide) | Kd [4] [nM]
1 | LLO91-99/H2-K^d tetramers: conventional tetramers of H2-K^d/LLO91-99 complexes with PE- or Alexa546-conjugated streptavidin | poorly proliferate | high intensity staining | reduced and more diffuse staining pattern | increased binding of annexin V | substantial downregulation of surface TCR | typical surface-staining pattern | most multimers are internalized | significantly reduced protection | much lower numbers | indistinguishable from untreated mice | dramatic loss of protective capacity | still confer some significant Listeria-specific protection | increased lysis in the absence of LLO91-99 peptide addition | reduction in maximum % specific lysis | decreased peptide sensitivity | –
2 | WSHPQFEK [Strep-tag® II peptide] | – | – | – | – | – | – | – | – | – | – | – | – | – | – | – | ~1000
